Values of other authors, collected in US20060062848A1, “Formulation comprising itraconazole” (Nektar Therapeutics UK Limited, priority 2004, published 2006).
Values after ≈ are worked out from the molar mass of the structure shown. Like-named read-outs stand apart in the source and are kept apart here.

aqueous solubility (neutral pH): 0.001 µg/mL (≈ 0.00142 µM)
aqueous solubility (pH 1): 6 µg/mL (≈ 8.5 µM)
Structure (SMILES): CCC(C)n1ncn(-c2ccc(N3CCN(c4ccc(OCC5CO[C@](Cn6cncn6)(c6ccc(Cl)cc6Cl)O5)cc4)CC3)cc2)c1=O (mixture of isomers) [itraconazole, (±) cis-4-[4-[4-[4-[[2-(2,4-dichlorphenyl)-2-(1H-1,2,4-triazol-1-ylmethyl)-1,3-dioxolan-4-yl]methoxy]phenyl]-1-piperazinyl]phenyl]-2,4-dihydro-2-(1-methylpropyl)-3H-1,2,4-triazol-3-one]
